From ChEMBL document CHEMBL3286313 (J Med Chem, 2014)
Values joined by “and” are separate entries in the source; they are usually repeats but may differ in a detail not shown here. Identical values can stand only once. Active and inactive are the calls of the source. No cut-off for these calls is given here.

Key:
D(2) dopamine receptor [1] = biological target: T1, D(2) dopamine receptor (Homo sapiens, UniProt P14416)
D(3) dopamine receptor [2] = biological target: T2, D(3) dopamine receptor (Homo sapiens, UniProt P35462); experiment: biochemical; format: cell-based, CHO
T2 sequence (P35462 whole entry): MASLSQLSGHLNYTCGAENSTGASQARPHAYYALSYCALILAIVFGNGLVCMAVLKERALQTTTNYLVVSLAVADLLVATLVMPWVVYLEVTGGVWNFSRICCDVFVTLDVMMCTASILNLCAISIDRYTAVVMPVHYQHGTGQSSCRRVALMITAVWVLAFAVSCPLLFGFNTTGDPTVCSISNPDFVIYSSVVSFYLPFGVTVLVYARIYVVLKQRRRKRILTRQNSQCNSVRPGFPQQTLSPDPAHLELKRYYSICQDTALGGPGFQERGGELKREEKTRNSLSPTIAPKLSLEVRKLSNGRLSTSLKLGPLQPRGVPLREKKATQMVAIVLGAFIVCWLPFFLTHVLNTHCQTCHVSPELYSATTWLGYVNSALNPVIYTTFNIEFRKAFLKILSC

D(4) dopamine receptor = biological target: T3, D(4) dopamine receptor (Homo sapiens, UniProt P21917); experiment: biochemical; format: cell-based, CHO
T3 sequence (P21917 whole entry): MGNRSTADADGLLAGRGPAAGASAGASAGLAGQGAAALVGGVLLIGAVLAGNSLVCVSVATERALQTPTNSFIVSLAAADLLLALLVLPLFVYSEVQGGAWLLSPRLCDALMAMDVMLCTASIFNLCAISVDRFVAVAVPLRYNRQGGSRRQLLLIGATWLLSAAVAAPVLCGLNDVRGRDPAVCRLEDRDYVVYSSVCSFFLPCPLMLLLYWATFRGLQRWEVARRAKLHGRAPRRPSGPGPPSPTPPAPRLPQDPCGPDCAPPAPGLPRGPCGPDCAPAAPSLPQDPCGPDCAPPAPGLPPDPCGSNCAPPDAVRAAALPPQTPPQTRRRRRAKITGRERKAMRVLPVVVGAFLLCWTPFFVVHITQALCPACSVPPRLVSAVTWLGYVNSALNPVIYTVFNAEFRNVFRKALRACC

D(3) dopamine receptor [3] = biological target: T2, D(3) dopamine receptor; format: functional, cell-based, HEK293
D(2) dopamine receptor [4] = biological target: T1, D(2) dopamine receptor; experiment: biochemical; format: cell-based, CHO
D(2) dopamine receptor [5] = biological target: T1, D(2) dopamine receptor; experiment: biochemical; format: cell-based, CHO; remark: listed apart in the source
[6] = biological target: 5-hydroxytryptamine receptor 2A (Homo sapiens, UniProt P28223); experiment: biochemical; format: cell-based, HEK293
Sequence of 5-hydroxytryptamine receptor 2A (P28223 whole entry): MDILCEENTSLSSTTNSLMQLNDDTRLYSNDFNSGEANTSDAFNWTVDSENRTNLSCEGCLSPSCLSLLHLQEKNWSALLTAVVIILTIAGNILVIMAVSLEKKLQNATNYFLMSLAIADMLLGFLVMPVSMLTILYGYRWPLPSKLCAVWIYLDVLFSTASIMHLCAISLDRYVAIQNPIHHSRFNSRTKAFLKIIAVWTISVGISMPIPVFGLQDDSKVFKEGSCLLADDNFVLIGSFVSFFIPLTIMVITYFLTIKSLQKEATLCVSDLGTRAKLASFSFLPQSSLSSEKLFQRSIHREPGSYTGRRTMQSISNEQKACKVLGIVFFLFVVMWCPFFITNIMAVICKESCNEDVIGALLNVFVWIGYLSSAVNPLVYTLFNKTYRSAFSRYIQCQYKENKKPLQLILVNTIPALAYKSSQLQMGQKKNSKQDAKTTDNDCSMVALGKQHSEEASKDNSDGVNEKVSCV

D(1A) dopamine receptor = D(1A) dopamine receptor (Homo sapiens, UniProt P21728); experiment: biochemical; format: cell-based, HEK293
Sequence of D(1A) dopamine receptor (P21728 whole entry): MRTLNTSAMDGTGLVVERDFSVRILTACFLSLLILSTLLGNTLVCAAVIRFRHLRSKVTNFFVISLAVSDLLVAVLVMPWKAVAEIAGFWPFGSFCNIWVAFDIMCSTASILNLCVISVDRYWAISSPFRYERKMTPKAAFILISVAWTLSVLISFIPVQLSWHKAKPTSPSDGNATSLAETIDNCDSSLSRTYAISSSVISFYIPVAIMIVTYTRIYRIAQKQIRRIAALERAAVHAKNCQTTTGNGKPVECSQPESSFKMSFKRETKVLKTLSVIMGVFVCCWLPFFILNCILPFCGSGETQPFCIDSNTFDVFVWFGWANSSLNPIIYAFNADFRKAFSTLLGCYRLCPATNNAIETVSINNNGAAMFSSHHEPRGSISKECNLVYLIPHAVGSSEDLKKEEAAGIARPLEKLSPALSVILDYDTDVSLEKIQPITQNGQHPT

Mus musculus = experiment: CNS activity in C57Bl/6J mouse assessed as auditory startle response at 3 mg/kg, ip measured after 15 mins; format: functional, organism-based; set-up: dose 3 mg/kg
D(2) dopamine receptor [7] = biological target: T1, D(2) dopamine receptor; remark: listed apart in the source

T1 sequence (P14416 whole entry): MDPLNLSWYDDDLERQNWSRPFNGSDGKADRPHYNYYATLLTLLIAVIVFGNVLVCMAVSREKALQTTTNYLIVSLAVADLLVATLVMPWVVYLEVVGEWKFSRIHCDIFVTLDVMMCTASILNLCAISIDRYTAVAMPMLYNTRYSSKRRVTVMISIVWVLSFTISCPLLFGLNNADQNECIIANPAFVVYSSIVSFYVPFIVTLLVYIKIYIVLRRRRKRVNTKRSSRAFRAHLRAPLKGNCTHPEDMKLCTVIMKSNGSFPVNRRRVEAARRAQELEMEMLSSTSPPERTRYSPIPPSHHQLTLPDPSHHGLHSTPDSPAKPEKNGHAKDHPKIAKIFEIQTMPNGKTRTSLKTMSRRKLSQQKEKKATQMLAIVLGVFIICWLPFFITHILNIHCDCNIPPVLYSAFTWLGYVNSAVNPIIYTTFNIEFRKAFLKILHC

| Compound | EC50 (D(2) dopamine receptor [1]) [nM] | Ki (D(3) dopamine receptor [2]) [nM] | Ki (D(4) dopamine receptor) [nM] | EC50 (D(3) dopamine receptor [3]) [nM] | Ki (D(2) dopamine receptor [4]) [nM] | Ki (D(2) dopamine receptor [5]) [nM] | Ki [6] [nM] | Ki (D(1A) dopamine receptor) [nM] | Activity (Mus musculus) | IC50 (D(2) dopamine receptor [7]) |
| --- | --- | --- | --- | --- | --- | --- | --- | --- | --- | --- |
| O=Cc1cnn2cc(OCCCCN3CCN(c4cccc(Cl)c4Cl)CC3)ccc12 | 340 | 2 | 18 | 110 | 8.1 | 6.2 | – | – | – | – |
| Clc1cccc(N2CCN(CCCCOc3cccc4ccnn34)CC2)c1Cl | – | 7.2 | 16 | – | 16 | 64 | – | – | – | – |
| N#Cc1cnn2ccc(OCCCCN3CCN(c4cccc(Cl)c4Cl)CC3)cc12 | 110 | 1.5 | 5.7 | 12 | 0.32 | 0.58 | 490 | 930 | – | – |
| N#Cc1cc2cc(OCCCCN3CCN(c4cccc(Cl)c4Cl)CC3)ccn2n1 | 98 | 1.9 | 9.3 | 41 | 6.7 | 8.9 | 81 | 3500 | – | – |
| O=Cc1cnn2ccc(OCCCCN3CCN(c4cccc(Cl)c4Cl)CC3)cc12 | 650 | 6.9 | 57 | 1.9 | 3.2 | 4.6 | 240 | 970 | Active | 360 nM |
| O=Cc1cc2cc(OCCCCN3CCN(c4cccc(Cl)c4Cl)CC3)ccn2n1 | – | 6 | 89 | 5 | 14 | 14 | 56 | 180 | – | 28.8 nM and 22 nM |
| OCc1cc2cc(OCCCCN3CCN(c4cccc(Cl)c4Cl)CC3)ccn2n1 | 540 | 1.3 | 35 | 5.9 | 2.3 | 3.1 | 16 | 240 | – | – |
| Clc1cccc(N2CCN(CCCCOc3ccc4ccnn4c3)CC2)c1Cl | 1300 | 2.3 | 4.4 | 41 | 2.1 | 4.2 | – | – | – | – |
| O/N=C/c1cc2cc(OCCCCN3CCN(c4cccc(Cl)c4Cl)CC3)ccn2n1 | – | 0.86 | 24 | 15 | 2.3 | 3.3 | 7.9 | 260 | – | – |
| O=Cc1cnn2c(OCCCCN3CCN(c4cccc(Cl)c4Cl)CC3)cccc12 | – | 6.4 | 78 | – | 15 | 51 | – | – | – | – |
| O=Cc1cnn2cccc(OCCCCN3CCN(c4cccc(Cl)c4Cl)CC3)c12 | – | 20 | 41 | – | 24 | 29 | – | – | – | – |
| O=Cc1c(OCCCCN2CCN(c3cccc(Cl)c3Cl)CC2)nn2ccccc12 | – | 5.9 | 29 | – | 14 | 10 | – | – | – | – |
| O/N=C/c1cnn2ccc(OCCCCN3CCN(c4cccc(Cl)c4Cl)CC3)cc12 (stereo in doubt; 8a) | 270 | 2.3 | 5.3 | 42 | 1.7 | 1.8 | 7.7 | 4300 | – | – |
| CCOC(=O)c1cc2cc(OCCCCN3CCN(c4cccc(Cl)c4Cl)CC3)ccn2n1 | 440 | 2.1 | 47 | 57 | 6.7 | 7.4 | 22 | 150 | – | – |
| Clc1cccc(N2CCN(CCCCOc3ccn4nccc4c3)CC2)c1Cl | 180 | 7 | 130 | 66 | 39 | 34 | – | – | – | – |
| O/N=C/c1cnn2ccc(OCCCCN3CCN(c4cccc(Cl)c4Cl)CC3)cc12 (stereo in doubt; 8b) | 240 | 0.69 | 6 | 39 | 0.25 | 0.17 | 4 | 670 | – | 3.8 nM |
| Clc1cccc(N2CCN(CCCCOc3cccn4nccc34)CC2)c1Cl | – | 10 | 16 | – | 30 | 25 | – | – | – | – |
